Results: US6472348B1, “Pyridone derivatives and herbicides” (Kumiai Chemical Industry Co., Ltd., priority 1996, dated 2002)

Columns and labels:
Assay type in all cases: in vivo
[1] = system: Diaitaria ciliaris (Di); assay: Test Example 4: crop plant selectivity by upland field soil treatment (cotton), herbicidal effects; details: evaluated 21st day after application
Procedure, shortened: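 Upland soil-treatment selectivity test: scoring on day 21 post-application in a greenhouse, rating crop phytotoxicity on cotton and herbicidal effect on co-sown weeds. Seeds were sown in sand-filled pots and covered with soil before treatment.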

[2] = system: Diaitaria ciliaris (Di); assay: Test Example 5: crop plant selectivity by upland field soil treatment (wheat), herbicidal effects; details: 21st day after application
Method: (§1) (Test on Crop Plant Selectivity by Upland Field Soil Treatment)
In a plastic pot (surface area: 600 cm^2) filled with sand, wheat (Tr), Diaitaria ciliaris (Di), green foxtail (Se), pale smartweed (Po), slender amaranth (Am), common lambsquarters (Ch) and China jute (Ab) were sown and covered with soil. […] The plants were then cultured in a green house, and the evaluation of the herbicidal effects and phytotoxicity was conducted on the 21st day after the application in accordance with the standards as identified in Table 47. Symbol—represents “not tested”.

[3] = system: Diaitaria ciliaris (Di); assay: Test Example 6: crop plant selectivity by upland field soil treatment (soybean), herbicidal effects; details: 21st day after application
Method: as §1
(§2) In a plastic pot (surface area: 600 cm^2) filled with sand, soybean (Gl), Diaitaria ciliaris (Di), green foxtail (Se), Johnsongrass (So), pale smartweed (Po), slender amaranth (Am), common lambsquarters (Ch) and China jute (Ab) were sown and covered with soil. […] The plants were then cultured in a green house, and the evaluation of the herbicidal effects and phytotoxicity was conducted on the 21st day after the application in accordance with the standards as identified in Table 47. Symbol—represents “not tested”.

[4] = system: Johnsongrass (So); assay: as above; details: 21st day after application
Method: as §1, §2

[5] = system: China jute (Ab); assay: Test Example 10: crop plant selectivity by upland field foliage treatment (soybean), herbicidal effects; details: dose 1.6 g ai/10a, 14th day after treatment
Procedure, shortened: (§3)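 Soybean and weeds were grown in sand in a greenhouse for 2 weeks before foliar treatment. Herbicidal effect on weeds and phytotoxicity on soybean were scored on day 14 after treatment against a graded scale.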

[6] = system: common lambsquarters (Ch); assay: as above; details: dose 1.6 g ai/10a, 14th day after treatment
Procedure, shortened: as §3

[7] = system: pale smartweed (Po); assay: as above; details: dose 1.6 g ai/10a, 14th day after treatment
Procedure, shortened: as §3

[8] = system: cotton (Go); assay: Test Example 8: crop plant selectivity by upland field foliage treatment (cotton), phytotoxicity; details: dose 1.6 g ai/10a, 14th day after treatment
Method: (§4) (Test on Crop Plant Selectivity by Upland Field Foliage Treatment)
(§5) In a plastic pot (surface area: 600 cm^2) filled with sand, cotton (Go), pale smartweed (Po), slender amaranth (Am), common lambsquarters (Ch) and China jute (Ab) were sown and cultured in a green house for 2 weeks. […] The plants were then cultured in a green house, and the evaluation of the herbicidal effects and phytotoxicity was conducted on the 14th day after the treatment in accordance with the standards as identified in Table 47.

[9] = system: China jute (Ab); assay: Test Example 8: crop plant selectivity by upland field foliage treatment (cotton), herbicidal effects; details: dose 1.6 g ai/10a, 14th day after treatment
Method: as §4, §5

[10] = system: common lambsquarters (Ch); assay: as above; details: dose 1.6 g ai/10a, 14th day after treatment
Method: as §4, §5

[11] = system: pale smartweed (Po); assay: as above; details: dose 1.6 g ai/10a, 14th day after treatment
Method: as §4, §5

[12] = system: slender amaranth (Am); assay: as above; details: dose 1.6 g ai/10a, 14th day after treatment
Method: as §4, §5

| Structure (SMILES) | Herbicidal effects Di ([1]; dose 1.6 g ai/10 a) | Herbicidal effects Di ([1]; dose 6.3 g ai/10 a) | Herbicidal effects Di ([2]; dose 1.6 g ai/10a) | Herbicidal effects Di ([3]; dose 1.6 g ai/10a) | Herbicidal effects So ([4]; dose 1.6 g ai/10a) | Herbicidal effects Ab [5] | Herbicidal effects Ch [6] | Herbicidal effects Po [7] | also measured |
| --- | --- | --- | --- | --- | --- | --- | --- | --- | --- |
| C#CC(C)Oc1cc(-c2cn(C)c(C(F)(F)F)cc2=O)c(F)cc1Cl (racemic) [Compound 6-10] | 5 | 5 | 5 | 5 | 5 |  |  |  |  |
| COc1cc(-c2ccc(C(F)(F)F)n(C)c2=O)c(F)cc1Cl [1-15] |  | 5 |  |  |  |  |  |  |  |
| Cn1c(C(F)(F)F)ccc(-c2cc(OCCCl)c(Cl)cc2F)c1=O [1-171] |  |  |  |  |  | 5 | 5 | 5 |  |
| C=CC(C)Oc1cc(-c2ccc(C(F)(F)F)n(C)c2=O)c(F)cc1Cl (stereo not drawn) [Compound 1-182] |  |  |  |  |  |  |  |  | Phytotoxicity Go [8]: 2; Herbicidal effects Ab [9]: 5; Herbicidal effects Ch [10]: 5; Herbicidal effects Po [11]: 5; Herbicidal effects Am [12]: 5 |
| CCON=Cc1cc(-c2ccc(C(F)(F)F)n(C)c2=O)c(F)cc1Cl [Compound 1-187] |  |  |  |  |  | 5 | 5 | 5 | Phytotoxicity Go [8]: 2; Herbicidal effects Ab [9]: 5; Herbicidal effects Ch [10]: 5; Herbicidal effects Po [11]: 5; Herbicidal effects Am [12]: 5 |
| CSCOc1cc(-c2ccc(C(F)(F)F)n(C)c2=O)c(F)cc1Cl [Compound 1-208] |  |  |  |  |  | 5 | 5 | 5 |  |
| C=CCN1C(=O)COc2cc(F)c(-c3ccc(C(F)(F)F)n(C)c3=O)cc21 [Compound 2-7] | 5 | 5 | 5 | 5 | 5 |  |  |  | Herbicidal effects Di ([3]; dose 6.3 g ai/10a): 5; Herbicidal effects So ([4]; dose 6.3 g ai/10a): 5 |
| CCCc1cc2c(-c3ccc(C(F)(F)F)n(C)c3=O)c(F)cc(Cl)c2o1 [Compound 4-3] |  |  |  |  |  | 5 | 5 | 5 |  |
| CCc1cc2c(Cl)cc(F)c(-c3ccc(C(F)(F)F)n(C)c3=O)c2o1 [Compound 5-2] |  |  |  |  |  | 5 | 5 | 5 |  |
| Cn1c(C(F)(F)F)ccc(-c2cc(C#N)c(Cl)cc2F)c1=O [Compound No. 1-119, 3-(4-chloro-5-cyano-2-fluorophenyl)-1-methyl-6-trifluoromethyl-2(1H)-pyridone] |  |  |  |  |  | 4 | 5 | 5 |  |
| CCCC(=O)c1cc(-c2ccc(C(F)(F)F)n(C)c2=O)c(F)cc1Cl [Compound No. 1-194, 3-[4-chloro-2-fluoro-5-(1-oxobutyl)phenyl]-1-methyl-6-trifluoromethyl-2(1H)-pyridone] |  |  |  |  |  |  |  |  | Phytotoxicity Go [8]: 2; Herbicidal effects Ab [9]: 5; Herbicidal effects Ch [10]: 5; Herbicidal effects Po [11]: 5; Herbicidal effects Am [12]: 5 |
| C#CCN1C(=O)COc2cc(F)c(-c3ccc(C(F)(F)F)n(C)c3=O)cc21 [Compound No. 2-1, 3-[7-fluoro-2,3-dihydro-4-(2-propynyl)-1,4-benzoxazin-3-on-6-yl]-1-methyl-6-trifluoromethyl-2(1H)-pyridone] | 5 |  | 5 | 5 | 5 |  |  |  | Herbicidal effects Di ([3]; dose 6.3 g ai/10a): 5; Herbicidal effects So ([4]; dose 6.3 g ai/10a): 5 |
| Cn1cc(-c2cc(Oc3ccccc3)c(Cl)cc2F)c(=O)cc1C(F)(F)F [Compound No. 6-19, 5-(4-chloro-2-fluoro-5-phenoxyphenyl)-1-methyl-2-trifluoromethyl-4(1H)-pyridone] | 5 | 5 | 5 | 5 | 4 |  |  |  | Herbicidal effects Di ([2]; dose 6.3 g ai/10a): 5; Herbicidal effects Di ([3]; dose 6.3 g ai/10a): 5; Herbicidal effects So ([4]; dose 6.3 g ai/10a): 5 |
